Reference: patent publication US20230123277A1, “COMPOSITIONS COMPRISING 2'-DEOXYCYTIDINE ANALOGS AND USE THEREOF FOR THE TREATMENT OF SICKLE CELL DISEASE AND THALASSEMIA” (AkiraBio, Inc., priority 2021, published 2023)

Assays:
[1] = test system: pediatric brain tumor models; settings: background statement; cited from earlier work
[2] = Relative thermodynamic stability of crystalline polymorphs (DSC); format: physicochemical; settings: Form A compared with Form F, from melting temperatures
Description: DSC ANALYSIS. Thermal events (i.e., melting, re-crystallization) were obtained from DSC thermograms, recorded with a heat flux DSC3+ STARe system (Mettler-Toledo GmbH, Switzerland). The DSC3+ was calibrated for temperature and enthalpy with a small piece of indium (m.p.=156.6° C.; δHf=28.45 J/g) and zinc (m.p.=419.6° C.; δHf=107.5 J/g). Samples (circa 2 mg) were sealed in standard 40 μL aluminum pans, pin-holed and heated in the DSC from 25° C. to 300° C., at a heating rate of 10° C./min. Dry N2 gas, at a flow rate of 50 mL/min was used to purge the DSC equipment during measurement. The cycling DSC experiments were measured in standard 40 μL aluminum pans, pin-holed and heated in the DSC from 25° C. to variable temperatures, then cooled back to 25° C. The heating and cooling rate was 10° C./min. Dry N2 gas, at a flow rate of 50 mL/min was used to purge the DSC equipment during measurement. Afterwards the samples were recovered and analyzed by HT-XRPD.
Form A obtained from the solvent equilibration experiment at RT in TFE was used for the analytical characterization. […] (FIG. 12A). […] The LCMS analysis confirmed the Form A's integrity with a purity of 100% (area %) (FIG. 12C).
Form F obtained from the evaporative crystallization experiment using DMF/acetonitrile (80/20, v/v) was used for characterization. […]

Row | Structure (SMILES) | therapeutic response [1] | thermodynamic stability of the polymorph [2]
1 | Nc1ncn([C@H]2C[C@H](O)[C@@H](CO)S2)c(=O)n1 [5-aza-4′-thio-2′-deoxycytidine] | no significant therapeutic response | –
2 | Nc1nc(=O)n([C@H]2C[C@H](O)[C@@H](CO)O2)cc1F [5-fluoro-2′-deoxycytidine, reference compound] | no significant therapeutic response | –
3 | Nc1ncn([C@H]2C[C@H](O)[C@@H](CO)S2)c(=O)n1 [Form A, 5-aza-4′-thio-2′-deoxycytidine] | – | thermodynamically more stable form
